According to patent publication EP4178959B1, “NITROGEN HETEROCYCLIC CYTOKININ DERIVATIVES, COMPOSITIONS CONTAINING THESE DERIVATIVES AND USE THEREOF” (Univerzita Palackého v Olomouci, priority 2020, dated 2022):

Assays:
Zea mays seedlings = experiment: Effect on development of Zea mays seedlings (hydroponic); format: in vivo, Zea mays cv. CELLUX; conditions: for Root dry mass (%) [4 x 10^-8 mol.l^-1 Kin = 100%] / Shoot dry mass (%) [10^-6 mol.l^-1 Kin = 100%]: at concentration with highest activity
Protocol: Maize seeds (Zea mays cv. CELLUX) were imbibed in tap water and germinated on a wetted filter paper. After 3 days, the germinated seedlings were transferred to aerated hydroponic tanks filled with Hoagland's nutrient solution. The plants were grown in an environmental chamber with 16 h light period (250 μE m^-2 s^-1) at 27°C and 8 h dark period at 20°C. Tested compounds diluted in DMSO were added to nutrient solution immediately when seedlings were nested in the tanks or after two additional days of cultivation. Control plants were grown in parallel with addition of corresponding amount of DMSO (up to 0.01%). Root and leaf tissues of ten plants were harvested at different time points after the application of the compounds, immediately frozen in liquid nitrogen and used for cytokinin content and transcript level analysis. Length of primary root and the first leaf were determined with ruler on sets of twelve plants, each cultivated in the independent tank (for every cytokinin application repeated ten times). Dry mass of root system and the aerial part was determined after cutting off the kernel and desiccation in dryer for two days at 60°C. […] Fig. 4) and up to 1 micromolar concentration when more seedlings were in the solution (approx. 50 seedlings per 1 liter; Fig. 5). […] Table 7: […]

Arabidopsis thaliana = experiment: Effect on the root proliferation of Arabidopsis thaliana; format: in vivo, Arabidopsis thaliana (ecotype Columbia); conditions: for Concentration with highest activity: number of lateral roots; for Activity (%) [10^-8 mol.l^-1 Kin = 100%]: number of lateral roots (% of control), at concentration with highest activity
Protocol: Arabidopsis thaliana seeds (ecotype Columbia) were sterilized with 70% ethanol and 0.1% Triton X-100 and then washed with 70% ethanol containing 0.01% Triton X-100. Then the seeds were transferred to vertical square petri dishes (11 seeds per dish) on a solid medium consisting of MS (2.15 g/l), MES (0.5 g/l), sucrose (1 g/l), agar (11 g/l), buffered to pH 5.8, and various concentrations of tested compounds. The compounds were dissolved in DMSO, thus 0.05% DMSO was used as a control solution. After incubation for 3 days in darkness at 4°C, the seeds were germinated and grown in an environmental chamber (fluorescence light intensity 150 µE m^-2 s^-1, humidity 55%, 16 h day/8 h night, 22°C). […] The number of lateral roots was scored under a stereomicroscope. […] In addition, compounds with tetrahydropyranyl protection at N9 slightly increase the number of emerged lateral roots (Fig 3C). […] Table 6: […]

[1] = Calcein AM cytotoxicity assay, NIH3T3 cells; conditions: mouse
Protocol: (§1) All compound concentrations were examined in duplicates. […] Zero cytotoxicity is a basic prerequisite for the use of these substances in cosmetical applications. To assess the antitumor activity, the toxicity of new derivatives on panels containing cell lines of different histogenic and species origin was tested (Table 5). […] The compounds listed in Table 5 can be divided into 2 groups.
(§2) The first group contains "classical cytokinins" represented by 6-substituted purines (their effects are already known). The second group includes novel 2-fluoro-N6-substituted-9-(2-oxacycloalkyl)-9H-purine-6-amine derivatives. […] Low cytotoxicity (high IC50 value) of the compounds is the basic prerequisite for cosmetic and medical applications. […] Table 5: Cytotoxicity of novel compounds for different normal cell lines tested / IC50 (µmol/L)

[2] = Calcein AM cytotoxicity assay, B10A.4 cells; conditions: mouse, Cytotoxicity IC50, B10A.4, first column headed B10A.4
Protocol: as §1, §2

excised wheat leaf tips = experiment: Senescence inhibition on winter wheat leaf segments (chlorophyll retention); parameters: species or system Triticum aestivum cv. Hereward; conditions: for Emax: Triticum aestivum, foliar, read-out: Activity (%) [10^-4mol.l^-1 KTHP = 100%]
Protocol: Seeds of winter wheat, Triticum aestivum cv. Hereward, were washed under running water for 24 hours and then sown on vermiculite soaked with the Knop's solution. They were placed in the grow chamber at 25 °C with a 16/8 h light period at 50 μmol.m^-2.s^-1. After 7 days, the first leaf was fully developed and the second leaf had started to grow. A tip section of the first leaf, approximately 35 mm long, was removed from 5 seedlings and trimmed slightly to a combined weight of 100 mg. The basal ends of the five leaf tips were placed in the wells of a microtiter polystyrene plate containing 150 μl of the solution of the tested compound each. The entire plate was inserted into a plastic box lined with paper tissues soaked with distilled water to prevent leaf sections from drying out. […] The absorbance of the extract was recorded at 665 nm. In addition, chlorophyll extracts from fresh leaves and leaf tips incubated in deionised water were measured. From the obtained data, the concetration with the highest activity was selected for each compound tested. Relative activity of the compound at this concentration was calculated (Table 7). […] The values shown are means of five replicates and the whole experiment was repeated twice. The compounds to be tested were dissolved in dimethylsulfoxide (DMSO) and the solution brought up to 10^-3 M with distilled water. […] The compounds listed in Table 7 can be divided into 2 groups. The first group contains "classical 6,9-disubstituted purines (KTHP as a control)" known in prior art. […] Table 9: […]

[3] = Calcein AM cytotoxicity assay, BJ cells; conditions: human
Protocol: as §1, §2

[4] = retention of chlorophyll in excised wheat leaf tips, 96 h in the dark, at concentration with highest activity

Compound | Root dry mass (%) [4 x 10^-8 mol.l^-1 Kin = 100%] (Zea mays seedlings) | Shoot dry mass (%) [10^-6 mol.l^-1 Kin = 100%] (Zea mays seedlings) | Concentration with highest activity (Zea mays seedlings; root dry mass) | Concentration with highest activity (Zea mays seedlings; shoot dry mass) | Concentration with highest activity (Arabidopsis thaliana) | Activity (%) [10^-8 mol.l^-1 Kin = 100%] (Arabidopsis thaliana) | IC50 at 72 h [1] | IC50 at 72 h [2] | Emax (excised wheat leaf tips; [4]) | IC50 at 72 h [3] | CC50 at 72 h ([1]; nih3t3 cells) | CC50 at 72 h ([2]; b10a.4 macrophages) | Concentration with highest activity (excised wheat leaf tips; retention of chlorophyll) | Activity (%) [10^-4mol.l^-1 KTHP = 100%] (excised wheat leaf tips; [4]) | CC50 at 72 h ([3]; bj fibroblasts) | root elongation and branching (in words) (Arabidopsis thaliana; already in micromolar concentration)
Oc1cc(Cl)cc(CNc2nc(F)nc3c2ncn3C2CCCO2)c1 (centres unmarked) [Compound 27] | 194.5 (± 18) % | 116.3 (± 7) % | 10^-7 mol.1^-1 | 10^-6 mol.1^-1 | 10^-5 mol.l^-1 | 45.7 (± 6) % | – | – | – | – | – | – | – | – | – | –
COc1ccc(CNc2nc(F)nc3c2ncn3C2CCCCO2)cc1 (centres unmarked) [Compound 68, 2-Fluoro-6-[(4-methoxybenzyl)amino]-9-(tetrahydro-2H-pyran-2-yl)-9H-purine] | – | 118.6 (± 9) % | – | 10^-6 mol.1^-1 | – | – | > 167 µM | > 167 µM | 155% | > 167 µM | – | – | – | – | – | –
Fc1nc(NCc2ccccc2)c2ncn(C3CCCCO3)c2n1 (centres unmarked) [Compound 64, 2-Fluoro-6-benzylamino-9-(tetrahydro-2H-pyran-2-yl)-9H-purine] | 168.9 (± 16) % | 108.9 (± 8) % | 10^-7 mol.1^-1 | 10^-6 mol.1^-1 | 10^-6 mol.l^-1 | 61.2 (± 3) % | 128 µM | 121 µM | 110% | 124 µM | – | – | – | – | – | –
CC(CO)CCNc1nc(F)nc2c1ncn2C1CCCCO1 (centres unmarked) [Compound 72] | 161.3 (± 21) % | 104.8 (± 7) % | 10^-7 mol.1^-1 | 10^-6 mol.1^-1 | 10^-6 mol.l^-1 | 68.5 (± 2) % | – | – | – | – | > 167 µM | > 167 µM | 10^-4 mol.l^-1 | 103 (± 7) % | > 167 µM | –
COc1cccc(CNc2ncnc3nc[nH]c23)c1 [6-(3-methoxybenzylamino)purine, reference compound] | – | – | – | – | – | – | – | – | – | – | – | – | – | – | – | significantly inhibits root elongation and branching
Oc1cccc(CNc2nc(F)nc3c2ncn3C2CCCO2)c1 (centres unmarked) [Compound 15, 2-Fluoro-6-[(3-hydroxybenzyl)amino]-9-(tetrahydrofuran-2-yl)-9H-purine] | 201.4 (± 22) % | 124.3 (± 8) % | 10^-7 mol.1^-1 | 10^-6 mol.1^-1 | 10^-5 mol.l^-1 | 24.8 (± 4) % | > 167 µM | > 167 µM | 133% | > 167 µM | – | – | – | – | – | –
